Source: ChEMBL document CHEMBL1201862, “PubChem BioAssay data set” (2004)
Active and inactive are the calls of the source.

How the values were obtained:
[1] = growth suppression of PTEN-null colon cells, dose response, cell-based, HCT116 PTEN knockout (AID 1047); format: functional;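 note: HCT116 colon tumor cells with PTEN knocked out; cells exposed to compound for 60 hours before readout; potency for loss of cell viability measured by luminescence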
[2] = growth suppression of beta-catenin-knockout colon cells, dose response, cell-based, HCT116, human colon tumor (AID 1045); format: functional;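 note: HCT116 colon tumor cells with beta catenin knocked out; cells exposed to compound for 60 hours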
[3] = cytotoxicity in HEK-293T cells, dose response, cytotoxicity control for TCR NF-kB inhibitor project, luminescence, T-cell screen hits (AID 489026); format: functional, cell-based;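 note: cells exposed to compound about 14 hours before the viability readout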
[4] = molecular target: T1, COUP transcription factor 2 (Homo sapiens, UniProt P24468); experiment: Luminescence-based cell-based high throughput dose response assay to identify inhibitors of COUP-TFII (NR2F2).; format: functional;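 note: HEK293 cells transiently cotransfected with COUP-TFII expression vector and reporter; luciferase reporter luminescence driven by COUP-TFII from the pX2-168 reporter plasmid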
T1 sequence (P24468 whole entry): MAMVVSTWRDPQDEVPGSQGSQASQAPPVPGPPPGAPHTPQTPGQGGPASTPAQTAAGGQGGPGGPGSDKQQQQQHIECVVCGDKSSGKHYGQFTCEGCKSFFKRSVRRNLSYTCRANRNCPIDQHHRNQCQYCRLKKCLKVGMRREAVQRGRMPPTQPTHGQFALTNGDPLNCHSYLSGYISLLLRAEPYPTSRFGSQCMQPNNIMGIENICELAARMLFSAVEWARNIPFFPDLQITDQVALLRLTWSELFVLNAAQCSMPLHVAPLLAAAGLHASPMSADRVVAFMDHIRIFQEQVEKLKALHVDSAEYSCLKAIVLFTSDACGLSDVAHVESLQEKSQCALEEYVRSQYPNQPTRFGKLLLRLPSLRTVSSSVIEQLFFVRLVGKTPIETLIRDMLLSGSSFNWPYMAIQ

[5] = molecular target: Peroxisome proliferator-activated receptor gamma/Nuclear receptor coactivator 3 (Homo sapiens, UniProt P37231); experiment: TR-FRET dose response biochemical High Throughput Screening assay for agonists of the steroid receptor coactivator 3 (SRC-3) recruitment by the peroxisome proliferator-activated receptor gamma (PPAR gamma): non-selective agonists. [Related pubchem assays: 1301 (Confirmation screen.), 1048 (Primary screen.)]; format: functional
Peroxisome proliferator-activated receptor gamma/Nuclear receptor coactivator 3, sequence (P37231 whole entry): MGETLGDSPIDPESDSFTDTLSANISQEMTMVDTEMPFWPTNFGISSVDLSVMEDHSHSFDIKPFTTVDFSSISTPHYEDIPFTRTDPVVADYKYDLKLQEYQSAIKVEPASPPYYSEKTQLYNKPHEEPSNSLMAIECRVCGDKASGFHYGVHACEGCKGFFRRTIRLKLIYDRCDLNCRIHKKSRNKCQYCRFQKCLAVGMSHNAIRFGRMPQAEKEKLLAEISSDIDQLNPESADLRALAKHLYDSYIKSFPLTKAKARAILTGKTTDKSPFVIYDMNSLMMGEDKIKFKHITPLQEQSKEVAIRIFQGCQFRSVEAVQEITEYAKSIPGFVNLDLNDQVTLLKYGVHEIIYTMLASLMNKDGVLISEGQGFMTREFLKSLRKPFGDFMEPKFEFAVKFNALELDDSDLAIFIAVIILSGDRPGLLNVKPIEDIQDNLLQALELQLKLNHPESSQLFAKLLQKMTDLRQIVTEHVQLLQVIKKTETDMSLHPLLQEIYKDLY
Peroxisome proliferator-activated receptor gamma/Nuclear receptor coactivator 3, sequence (Q9Y6Q9 whole entry, further chain): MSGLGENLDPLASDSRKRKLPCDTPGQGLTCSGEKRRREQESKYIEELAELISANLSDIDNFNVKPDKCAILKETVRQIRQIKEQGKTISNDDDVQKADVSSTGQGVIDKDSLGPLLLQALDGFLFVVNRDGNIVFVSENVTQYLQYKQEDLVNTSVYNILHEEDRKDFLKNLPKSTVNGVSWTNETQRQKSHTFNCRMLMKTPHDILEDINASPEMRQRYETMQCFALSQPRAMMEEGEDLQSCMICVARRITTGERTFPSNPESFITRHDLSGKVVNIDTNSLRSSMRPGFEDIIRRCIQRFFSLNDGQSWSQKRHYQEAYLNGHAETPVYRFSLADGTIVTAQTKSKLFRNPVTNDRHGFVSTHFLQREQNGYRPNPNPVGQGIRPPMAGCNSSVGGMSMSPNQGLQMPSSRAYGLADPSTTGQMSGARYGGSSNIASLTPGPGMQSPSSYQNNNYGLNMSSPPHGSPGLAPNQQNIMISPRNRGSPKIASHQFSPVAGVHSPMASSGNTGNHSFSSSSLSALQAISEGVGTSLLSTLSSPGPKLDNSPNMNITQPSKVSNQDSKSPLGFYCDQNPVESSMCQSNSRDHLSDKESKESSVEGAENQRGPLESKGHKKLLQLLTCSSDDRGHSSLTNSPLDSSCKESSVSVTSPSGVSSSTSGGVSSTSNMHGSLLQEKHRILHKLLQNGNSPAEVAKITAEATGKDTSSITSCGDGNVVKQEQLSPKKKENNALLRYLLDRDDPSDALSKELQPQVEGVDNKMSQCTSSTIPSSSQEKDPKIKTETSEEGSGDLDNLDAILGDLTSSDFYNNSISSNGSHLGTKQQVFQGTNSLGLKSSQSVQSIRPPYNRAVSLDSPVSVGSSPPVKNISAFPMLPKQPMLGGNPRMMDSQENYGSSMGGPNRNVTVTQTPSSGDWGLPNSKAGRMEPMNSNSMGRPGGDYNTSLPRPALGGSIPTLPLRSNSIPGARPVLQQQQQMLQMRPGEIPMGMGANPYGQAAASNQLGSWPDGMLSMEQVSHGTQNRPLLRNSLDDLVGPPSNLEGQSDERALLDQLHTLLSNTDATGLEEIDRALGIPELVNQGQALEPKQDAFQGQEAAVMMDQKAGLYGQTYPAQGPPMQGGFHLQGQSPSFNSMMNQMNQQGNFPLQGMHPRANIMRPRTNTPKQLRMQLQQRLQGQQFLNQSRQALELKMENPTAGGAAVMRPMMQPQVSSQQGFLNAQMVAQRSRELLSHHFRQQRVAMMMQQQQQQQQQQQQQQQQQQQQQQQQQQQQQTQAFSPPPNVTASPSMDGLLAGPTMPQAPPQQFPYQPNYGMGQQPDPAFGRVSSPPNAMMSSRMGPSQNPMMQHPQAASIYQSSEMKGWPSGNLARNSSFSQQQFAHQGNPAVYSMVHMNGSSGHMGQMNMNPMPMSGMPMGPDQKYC

[6] = molecular target: Peroxisome proliferator-activated receptor gamma/Nuclear receptor coactivator 2 (Homo sapiens, UniProt P37231); experiment: (§1) TR-FRET dose response biochemical High Throughput Screening assay for agonists of the steroid receptor coactivator 2 (SRC-2) recruitment by the peroxisome proliferator-activated receptor gamma (PPAR gamma): non-selective agonists. [Related pubchem assays: 1297, 1032 ]; format: functional
Peroxisome proliferator-activated receptor gamma/Nuclear receptor coactivator 2, sequence (P37231 whole entry): as the sequence (P37231 whole entry) above
Peroxisome proliferator-activated receptor gamma/Nuclear receptor coactivator 2, sequence (Q15596 whole entry, further chain): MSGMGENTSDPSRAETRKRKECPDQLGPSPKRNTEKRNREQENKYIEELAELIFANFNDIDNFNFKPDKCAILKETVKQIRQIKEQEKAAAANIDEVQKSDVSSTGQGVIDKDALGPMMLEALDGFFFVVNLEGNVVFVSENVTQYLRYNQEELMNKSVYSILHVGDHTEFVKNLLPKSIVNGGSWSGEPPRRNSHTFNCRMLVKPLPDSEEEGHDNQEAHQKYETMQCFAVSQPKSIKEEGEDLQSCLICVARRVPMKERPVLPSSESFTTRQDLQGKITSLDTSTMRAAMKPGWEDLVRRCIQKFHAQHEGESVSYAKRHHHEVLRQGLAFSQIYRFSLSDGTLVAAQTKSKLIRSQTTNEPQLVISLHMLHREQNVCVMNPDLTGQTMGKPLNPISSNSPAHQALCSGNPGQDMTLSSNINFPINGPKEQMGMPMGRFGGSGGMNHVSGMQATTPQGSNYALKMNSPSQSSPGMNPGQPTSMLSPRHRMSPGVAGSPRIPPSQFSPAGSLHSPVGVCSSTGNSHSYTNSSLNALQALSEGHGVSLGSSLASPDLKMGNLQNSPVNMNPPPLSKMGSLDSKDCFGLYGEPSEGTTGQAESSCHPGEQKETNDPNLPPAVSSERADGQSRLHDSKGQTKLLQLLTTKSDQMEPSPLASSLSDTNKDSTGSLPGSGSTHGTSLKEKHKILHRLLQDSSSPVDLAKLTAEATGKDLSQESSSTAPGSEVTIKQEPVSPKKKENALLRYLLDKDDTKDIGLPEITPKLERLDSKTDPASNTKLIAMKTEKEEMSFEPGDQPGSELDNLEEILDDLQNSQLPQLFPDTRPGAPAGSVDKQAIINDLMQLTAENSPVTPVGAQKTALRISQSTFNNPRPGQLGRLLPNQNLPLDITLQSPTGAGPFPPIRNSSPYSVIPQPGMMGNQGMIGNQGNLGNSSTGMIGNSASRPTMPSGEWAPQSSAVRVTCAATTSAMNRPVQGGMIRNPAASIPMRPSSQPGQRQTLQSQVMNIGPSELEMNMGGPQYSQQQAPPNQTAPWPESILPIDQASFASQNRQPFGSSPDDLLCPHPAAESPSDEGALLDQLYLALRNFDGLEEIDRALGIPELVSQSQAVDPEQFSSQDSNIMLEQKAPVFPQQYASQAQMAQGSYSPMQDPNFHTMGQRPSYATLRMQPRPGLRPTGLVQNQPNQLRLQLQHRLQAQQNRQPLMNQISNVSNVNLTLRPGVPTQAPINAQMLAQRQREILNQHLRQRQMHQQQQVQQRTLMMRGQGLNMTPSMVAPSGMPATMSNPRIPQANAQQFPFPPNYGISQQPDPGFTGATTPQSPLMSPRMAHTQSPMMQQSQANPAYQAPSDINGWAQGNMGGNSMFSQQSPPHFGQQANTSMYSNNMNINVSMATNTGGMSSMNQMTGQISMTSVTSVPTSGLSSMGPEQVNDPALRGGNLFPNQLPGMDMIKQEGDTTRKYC

[7] = molecular target: Peroxisome proliferator-activated receptor gamma/Nuclear receptor coactivator 1 (Homo sapiens, UniProt P37231); experiment: as §1, with “1 (SRC-1)” for “2 (SRC-2)”, “assays (depositor defined):AID1300, AID1808, AID504735, AID631]” for “assays: 1297, 1032 ]”; format: protein assay
[8] = molecular target: 72 kDa type IV collagenase (Homo sapiens, UniProt P08253); experiment: Dose Response validation of uHTS RPN11 inhibitor hits using a MMP-2 Fluorescence assay.; format: functional
[9] = HEp-2 cell cytotoxicity, dose response, cytotoxicity control for RSV inhibitor project, HTS (AID 2410); format: functional; conditions: human respiratory syncytial virus
[10] = molecular target: 26S proteasome non-ATPase regulatory subunit 14 (Homo sapiens, UniProt O00487); experiment: inhibition of proteasome subunit RPN11 – biochemical, fluorescence polarization, uHTS hits, confirmation (AID 602368); format: functional
Prothrombin [11] = molecular target: Prothrombin (Bos taurus, UniProt P00735); experiment: thrombin inhibition, dose response, biochemical, fluorescence polarization, uHTS hits (AID 602369); format: functional
[12] = Vero E6 cell cytotoxicity, dose response, cytotoxicity control for non-replicating M. tuberculosis project, secondary assay (AID 492998); format: functional, VeroE6; conditions: Vero C1008
cells = format: functional
Kallikrein-7 = Kallikrein-7 (Homo sapiens, UniProt P49862); experiment: Fluorescence Intensity-based biochemical primary high throughput dose response assay to identify activators of kallikrein-7 (K7) zymogen.
Kallikrein-7, sequence (P49862 whole entry): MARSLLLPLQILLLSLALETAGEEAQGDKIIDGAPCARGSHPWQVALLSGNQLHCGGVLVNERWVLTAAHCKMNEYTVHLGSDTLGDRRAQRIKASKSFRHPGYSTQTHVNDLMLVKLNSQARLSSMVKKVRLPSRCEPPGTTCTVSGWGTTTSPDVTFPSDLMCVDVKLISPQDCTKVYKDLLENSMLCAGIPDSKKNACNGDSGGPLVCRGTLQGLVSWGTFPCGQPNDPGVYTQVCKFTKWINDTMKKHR

[13] = A cytotoxicity screen of small molecule inhibitors of the PhoP region in Salmonella typhi identified in the primary screen. [Related pubchem assays: 1850, 1864, 1985 ]; format: functional
[14] = molecular target: FAD-linked sulfhydryl oxidase ALR (Homo sapiens, UniProt P55789); experiment: inhibitors of human ALR sulfhydryl oxidase, dose response, biochemical, H2O2 detection, luminescence, cherry-pick (AID 493248)
FAD-linked sulfhydryl oxidase ALR, sequence (P55789 whole entry): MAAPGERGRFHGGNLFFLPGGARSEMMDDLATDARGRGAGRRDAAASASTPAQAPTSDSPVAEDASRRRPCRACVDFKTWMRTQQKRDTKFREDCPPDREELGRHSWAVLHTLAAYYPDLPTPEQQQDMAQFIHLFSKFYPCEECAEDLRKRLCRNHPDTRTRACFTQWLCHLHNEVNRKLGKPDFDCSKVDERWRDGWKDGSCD

[15] = molecular target: Voltage-dependent T-type calcium channel subunit alpha-1H (Homo sapiens, UniProt O95180); format: functional;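 note: channel activity triggered by adding a high calcium stimulation buffer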
H9c2 = experiment: cells; format: functional, cell-based; conditions: Rattus norvegicus, H9c2, Myocardium;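 note: confirmatory concentration-response retest of ultra-high-throughput screening hits for modulation of myocardial damage; cell death induced by hydrogen peroxide oxidative stress; compound pretreatment for 60 min then peroxide exposure for 2 h; potency is for protecting the cells against peroxide damage rather than for killing them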
[16] = molecular target: T2, Corticotropin-releasing factor receptor 2/Corticotropin-releasing factor-binding protein (Homo sapiens, UniProt P24387+Q13324); experiment: activators of CRF receptor 2 with binding protein – uHTS hits, confirmation (AID 602473); format: functional; conditions: read-out: EC50_Mean
T2 sequence (Q13324 whole entry): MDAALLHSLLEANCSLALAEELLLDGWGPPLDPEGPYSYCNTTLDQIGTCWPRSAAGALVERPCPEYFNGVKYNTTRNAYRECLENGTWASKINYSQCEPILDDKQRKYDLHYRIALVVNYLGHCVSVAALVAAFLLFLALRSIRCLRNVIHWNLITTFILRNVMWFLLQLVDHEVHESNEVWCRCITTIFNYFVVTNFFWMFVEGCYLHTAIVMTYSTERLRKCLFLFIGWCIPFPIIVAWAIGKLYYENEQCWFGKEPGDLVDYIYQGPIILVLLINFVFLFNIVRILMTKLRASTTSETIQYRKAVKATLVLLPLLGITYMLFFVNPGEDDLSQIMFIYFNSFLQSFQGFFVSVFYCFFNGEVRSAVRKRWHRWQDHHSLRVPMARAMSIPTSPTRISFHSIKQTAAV
T2 sequence (P24387 whole entry): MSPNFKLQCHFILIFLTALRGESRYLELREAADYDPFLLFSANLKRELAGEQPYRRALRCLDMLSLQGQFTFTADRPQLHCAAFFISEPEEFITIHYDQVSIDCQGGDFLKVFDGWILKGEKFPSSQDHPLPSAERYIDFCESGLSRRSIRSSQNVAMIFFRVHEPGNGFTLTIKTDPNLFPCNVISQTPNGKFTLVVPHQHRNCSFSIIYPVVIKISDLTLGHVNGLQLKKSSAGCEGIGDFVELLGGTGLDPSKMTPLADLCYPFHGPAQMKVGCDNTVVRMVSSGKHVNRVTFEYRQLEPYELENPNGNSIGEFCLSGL

[17] = molecular target: T2, Corticotropin-releasing factor receptor 2/Corticotropin-releasing factor-binding protein; experiment: Dose Response confirmation of uHTS hits for small molecule antagonists of the CRF-binding protein and CRF-R2 receptor complex.; format: functional; conditions: read-out: IC50_Mean
Prothrombin [18] = molecular target: Prothrombin (Homo sapiens, UniProt P00734); experiment: Thrombin 1536 HTS Dose Response Confirmation. [Related pubchem assays: 1046 (Thrombin 1536 HTS; hits were confirmed in this assay)]; format: functional
[19] = molecular target: T3, Polyadenylate-binding protein 1 (Homo sapiens, UniProt P11940); experiment: PABP1 MLLE–PAM2 interaction inhibitors, dose response, miRNA deadenylation inhibitor project, biochemical, fluorescence polarization, Cy5-PAM2 peptide, secondary (AID 602260); format: functional; conditions: read-out: IC50_Mean
T3 sequence (P11940 whole entry): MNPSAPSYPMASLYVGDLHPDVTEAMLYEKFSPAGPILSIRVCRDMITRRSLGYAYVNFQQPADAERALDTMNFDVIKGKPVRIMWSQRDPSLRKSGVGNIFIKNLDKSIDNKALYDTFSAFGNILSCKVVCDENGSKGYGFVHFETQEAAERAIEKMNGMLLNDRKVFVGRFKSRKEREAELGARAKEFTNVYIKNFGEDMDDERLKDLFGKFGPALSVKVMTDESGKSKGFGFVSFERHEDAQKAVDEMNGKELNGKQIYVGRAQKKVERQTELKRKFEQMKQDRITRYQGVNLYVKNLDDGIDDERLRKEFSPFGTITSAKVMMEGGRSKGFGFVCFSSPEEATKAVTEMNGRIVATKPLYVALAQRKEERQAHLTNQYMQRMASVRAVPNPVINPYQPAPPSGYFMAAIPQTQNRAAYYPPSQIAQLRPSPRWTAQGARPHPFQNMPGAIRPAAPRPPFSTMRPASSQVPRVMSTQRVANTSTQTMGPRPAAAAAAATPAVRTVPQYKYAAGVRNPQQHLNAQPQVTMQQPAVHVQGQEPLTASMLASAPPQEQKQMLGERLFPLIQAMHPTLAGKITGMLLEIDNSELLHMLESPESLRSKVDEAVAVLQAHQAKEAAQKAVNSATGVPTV

[20] = molecular target: T4, Mannose-6-phosphate isomerase (Homo sapiens, UniProt P34949); experiment: human PMI inhibitors, high substrate, primary screen, biochemical, fluorescence intensity, high mannose 6-phosphate (AID 1220)
T4 sequence (P34949 whole entry): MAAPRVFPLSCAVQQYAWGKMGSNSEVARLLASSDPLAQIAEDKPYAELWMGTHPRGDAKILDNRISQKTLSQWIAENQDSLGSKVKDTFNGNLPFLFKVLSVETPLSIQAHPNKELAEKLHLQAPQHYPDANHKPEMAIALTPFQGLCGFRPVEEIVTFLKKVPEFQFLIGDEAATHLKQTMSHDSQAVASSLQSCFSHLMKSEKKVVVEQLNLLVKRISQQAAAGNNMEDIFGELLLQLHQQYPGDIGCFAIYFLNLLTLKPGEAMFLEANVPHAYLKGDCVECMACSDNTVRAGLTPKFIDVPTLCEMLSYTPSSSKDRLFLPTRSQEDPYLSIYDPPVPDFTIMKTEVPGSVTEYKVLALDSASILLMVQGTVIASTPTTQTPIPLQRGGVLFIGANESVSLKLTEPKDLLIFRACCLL

[21] = molecular target: T3, Polyadenylate-binding protein 1; experiment: PABP1 MLLE–PAM2 binding inhibitor potency, dose response, biochemical, fluorescence polarization, FITC-PAM2 peptide (AID 602259); format: functional; conditions: read-out: IC50_Mean

Compound: Cn1nc(CC(=O)Nc2ccc(N3CCN(C(=O)OC(C)(C)C)CC3)cc2)c2ccccc2c1=O
- EC50 [1]: 8.04 µM (active)
- EC50 [2]: 5.89 µM (active)
- IC50 [3]: > 80 µM (inactive)
- IC50 [4]: 4.32 µM (active)

Compound: COC(=O)Cc1c(C)c2c(O)cc(C)cc2oc1=O
- EC50 [5]: > 79.4 µM (not active)
- EC50 [6]: > 79.4 µM (not active)
- EC50 [7]: > 79.4 µM (inactive)

Compound: Clc1cccc(-c2ccc(/C=N/c3ccc(N4CCOCC4)cc3)o2)c1
- EC50 [5]: > 79.4 µM (not active)
- EC50 [6]: 28.6 µM (not active)
- EC50 [7]: > 79.4 µM (inactive)

Compound: N#C/C(=C\C1=C(N2CCOCC2)C(=C\c2ccc(Cl)cc2)/CC1)C(=O)Nc1ccccc1F
- IC50 [8]: > 100 µM (inactive)
- CC50 [9]: 18.3 µM (active)
- IC50 [10]: 6.46 µM (active)
- IC50 (Prothrombin [11]): 17 µM (active)

Compound: CCCn1nnnc1NC(=O)c1cc(Cl)ccc1Cl
- CC50 [12]: > 20 µM (active)
- IC50 (cells): 5.95 µM (active)

Compound: CCCC(=O)Nc1ccc2nn(-c3ccc(OC)cc3)nc2c1
- EC50 (Kallikrein-7): > 69.5 µM (inactive)

Compound: Cc1ccc2[nH]c(C(=O)O)c(NC(=O)CN3CCN(c4cccc(C)c4C)CC3)c2c1
- EC50 [13]: > 50 µM (active)
- AC50 [14]: 16.3 µM (active)
- EC50 [15]: 5.05 µM (active)
- CC50 [9]: 13.9 µM (active)

Compound: O=C(COC(=O)Cn1[nH]c(=O)c2ccccc2c1=O)NNC(=O)c1ccc(Br)cc1
- IC50 (H9c2): 17.2 µM (active)

Compound: Cc1cccc(N2CCN(C(=O)CCc3nc(O)c4ccccc4n3)CC2)c1C
- EC50 [16]: > 53 µM (inactive)
- IC50 (H9c2): > 79 µM (inactive)
- IC50 [17]: > 47.1 µM (inactive)

Compound: CCCCc1cc(=O)oc2cc(C)cc(OCC(=O)N3CCC(C(=O)O)CC3)c12
- EC50 (Kallikrein-7): > 7.72 µM (active)

Compound: O=C(Nc1ccccc1)c1nc[nH]c1C(=O)NCCCCCCNC(=O)c1[nH]cnc1C(=O)Nc1ccccc1
- IC50 (H9c2): > 79 µM (inactive)

Compound: CC(=O)N1C(=O)/C(=C2\SC(=S)N(c3c(C)n(C)n(-c4ccccc4)c3=O)C2=O)c2ccccc21
- IC50 (Prothrombin [18]): 8.97 µM (active)
- IC50 [19]: > 66 µM (inactive)
- IC50 [20]: > 50 µM (not active)
- IC50 [21]: > 66 µM (inactive)
